{"source": "patent EP0476853B1", "about": "“Triphenodioxazine dyes” (ZENECA LIMITED, priority 1990, dated 1992)", "experiment": "Solubility of the dyebase in aqueous acid solvent systems", "assay_type": "physicochemical", "method": "The solubility of the product from step (a) was then determined in the following aqueous solvent systems."}
{"smiles": "NCCNc1ccc2c(c1)Oc1c(Cl)c3c(c(Cl)c1=N2)Oc1cc(NCCN)ccc1N=3", "note": "[Formula (3)]", "values": [{"measurement": "Solubility (% w/w)", "setting": "solvent: 25% formic acid (aqueous)", "result": 5.3, "unit": "% w/w"}, {"measurement": "Solubility (% w/w)", "setting": "solvent: 25% lactic acid (aqueous)", "result": 4.8, "unit": "% w/w"}, {"measurement": "solubility", "setting": "solvent: 50% aqueous acetic acid (comparison)", "result": 2.52, "unit": "% w/w"}, {"measurement": "Solubility (% w/w)", "setting": "solvent: 50% formic acid (aqueous)", "result": 7.5, "unit": "% w/w"}, {"measurement": "Solubility (% w/w)", "setting": "solvent: 50% lactic acid (aqueous)", "result": 4.9, "unit": "% w/w"}, {"measurement": "Solubility (% w/w)", "setting": "solvent: 85% formic acid (aqueous)", "result": 24.7, "unit": "% w/w"}, {"measurement": "Solubility (% w/w)", "setting": "solvent: 88% lactic acid (aqueous)", "result": 4.8, "unit": "% w/w"}]}
